Test results published in US20240343704A1, “HALO-SUBSTITUTED AMINO PYRIDINE COMPOUNDS AS INHIBITORS OF THE HAEMATOPOIETIC PROGENITOR KINASE 1 (HPK1)” (priority 2021, published 2024).

Key:
Lck (h) = Lck (h) (Homo sapiens, UniProt P06239); test: Lck Human  Kinase Enzymatic Radiometric Assay; type: biochemical; settings: for IC50: read-out: Lck IC50 nM Range*; for LcK IC50/HPK IC50 selectivity: ratio of Lck IC50 to HPK1 IC50
Method: Lck (h) is incubated with 50 mM Tris pH 7.5, 0.1 mM EGTA, 0.1 mM Na3VO4, 250 uM KVEKIGEGTYGVVYK (Cdc2 peptide), 10 mM MgAcetate and [gamma-33P]-ATP (specific activity and concentration as required). The reaction is initiated by the addition of the Mg/ATP mix. After incubation for 40 minutes at RT, the reaction is stopped by the addition of phosphoric acid to a concentration of 0.5%. 10 uL of the reaction is then spotted onto a P30 filtermat and washed four times for 4 minutes in 0.425% phosphoric acid and once in methanol prior to drying and scintillation counting. For more details on the kinase assay procedures see: Gao, Y. et. al.; Biochem J., 451 (2): 313-328, 2013.

[1] = molecular target: T1, Recombinant (1-346) HPK1 (h) (Homo sapiens, UniProt Q92918); test: HPK1 Human STE Kinase Enzymatic Radiometric Assay; type: biochemical; settings: read-out: HPK1 IC50 nM Range*
T1 construct: Recombinant (1-346) HPK1 (h) is incubated with 8 mM MOPS pH 7.0
T1 sequence (Q92918 1-346): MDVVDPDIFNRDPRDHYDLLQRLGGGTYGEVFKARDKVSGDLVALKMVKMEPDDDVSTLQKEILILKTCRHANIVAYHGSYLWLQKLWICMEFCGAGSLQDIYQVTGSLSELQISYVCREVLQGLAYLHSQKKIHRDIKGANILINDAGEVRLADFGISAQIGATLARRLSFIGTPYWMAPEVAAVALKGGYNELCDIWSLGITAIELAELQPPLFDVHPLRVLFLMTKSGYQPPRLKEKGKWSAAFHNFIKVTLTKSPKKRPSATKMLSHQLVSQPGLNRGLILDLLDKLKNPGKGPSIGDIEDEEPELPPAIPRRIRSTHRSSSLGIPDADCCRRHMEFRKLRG
Method: A stock solution of 10 mM of test compound is prepared in DMSO. The compound plate was prepared by 3-fold and 9-point serial dilutions. […] The reaction is initiated by The addition of the Mg/ATP mix. After incubation for 40 minutes at RT, the reaction is stopped by the addition of phosphoric acid to a concentration of 0.5%.

Lck (h), sequence (P06239 whole entry): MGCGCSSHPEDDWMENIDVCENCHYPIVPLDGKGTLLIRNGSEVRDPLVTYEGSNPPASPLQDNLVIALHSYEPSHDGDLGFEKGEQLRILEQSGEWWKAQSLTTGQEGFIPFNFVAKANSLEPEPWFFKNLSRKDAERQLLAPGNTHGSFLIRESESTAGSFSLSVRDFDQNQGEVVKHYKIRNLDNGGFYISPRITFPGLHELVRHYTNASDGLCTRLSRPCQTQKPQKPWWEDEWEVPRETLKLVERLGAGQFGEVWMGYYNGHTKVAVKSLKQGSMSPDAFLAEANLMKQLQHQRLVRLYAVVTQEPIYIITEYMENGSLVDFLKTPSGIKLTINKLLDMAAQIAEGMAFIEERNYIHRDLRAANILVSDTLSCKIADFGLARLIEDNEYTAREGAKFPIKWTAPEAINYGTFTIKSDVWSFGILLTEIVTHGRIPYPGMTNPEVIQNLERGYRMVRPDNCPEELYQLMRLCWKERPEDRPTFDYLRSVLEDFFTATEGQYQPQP

SMILES	IC50 (Lck (h)) [nM]	IC50 [1] [nM]	LcK IC50/HPK IC50 selectivity (Lck (h))
CN1CCN(c2ccc(-c3cnc(N)c(-c4ccc5c(c4)CCNC5=O)c3F)cc2)CC1 [I-1, 6-(2-amino-4-fluoro-5-(4-(4-methylpiperazin-1-yl)phenyl)pyridin-3-yl)-3,4-dihydroisoquinolin-1(2H)-one]	101 to 1000	11 to 100	–
Nc1ncc(-c2ccc(N3CCOCC3)cc2)c(F)c1-c1ccc2c(c1)CCNC2=O [I-2, 6-(2-amino-4-fluoro-5-(4-morpholinophenyl)pyridin-3-yl)-3,4-dihydroisoquinolin-1(2H)-one]	> 1000	11 to 100	–
CC(C)S(=O)(=O)c1ccc(-c2cnc(N)c(-c3ccc4c(c3)CCNC4=O)c2F)cc1 [I-3, 6-(2-amino-4-fluoro-5-(4-(isopropylsulfonyl)phenyl)pyridin-3-yl)-3,4-dihydroisoquinolin-1(2H)-one]	> 1000	11 to 100	–
CC(C)[C@@H]1CN(c2ccc(-c3cnc(N)c(-c4ccc5c(c4)CCNC5=O)c3F)cc2)CCO1 [I-4, (R)-6-(2-amino-4-fluoro-5-(4-(2-isopropylmorpholino)phenyl)pyridin-3-yl)-3,4-dihydroisoquinolin-1(2H)-one]	> 1000	11 to 100	–
CC(C)[C@H]1CN(c2ccc(-c3cnc(N)c(-c4ccc5c(c4)CCNC5=O)c3F)cc2)CCO1 [I-5, (S)-6-(2-amino-4-fluoro-5-(4-(2-isopropylmorpholino)phenyl)pyridin-3-yl)-3,4-dihydroisoquinolin-1(2H)-one]	> 1000	11 to 100	–
CC(C)[C@@H]1CN(c2ccc(-c3cnc(N)c(-c4ccc5c(c4)CCNC5=O)c3F)c(F)c2)CCO1 [I-6, (R)-6-(2-amino-4-fluoro-5-(2-fluoro-4-(2-isopropylmorpholino)phenyl)pyridin-3-yl)-3,4-dihydroisoquinolin-1(2H)-one]	> 1000	11 to 100	–
CC(C)[C@H]1CN(c2ccc(-c3cnc(N)c(-c4ccc5c(c4)CCNC5=O)c3F)c(F)c2)CCO1 [I-7, (S)-6-(2-amino-4-fluoro-5-(2-fluoro-4-(2-isopropylmorpholino)phenyl)pyridin-3-yl)-3,4-dihydroisoquinolin-1(2H)-one]	> 1000	101 to 1000	–
CN1CCN(c2ccc(-c3cc(-c4ccc5c(c4)CCNC5=O)c(N)nc3F)cc2)CC1 [I-8, 6-(2-amino-6-fluoro-5-(4-(4-methylpiperazin-1-yl)phenyl)pyridin-3-yl)-3,4-dihydroisoquinolin-1(2H)-one]	> 1000	0.1 to 10	–
CC(C)[C@@H]1CN(c2ccc(-c3cc(-c4ccc5c(c4)CCNC5=O)c(N)nc3F)cc2)CCO1 [I-9, (R)-6-(2-amino-6-fluoro-5-(4-(2-isopropylmorpholino)phenyl)pyridin-3-yl)-3,4-dihydroisoquinolin-1(2H)-one]	> 1000	0.1 to 10	–
CC(C)[C@H]1CN(c2ccc(-c3cc(-c4ccc5c(c4)CCNC5=O)c(N)nc3F)cc2)CCO1 [I-10, (S)-6-(2-amino-6-fluoro-5-(4-(2-isopropylmorpholino)phenyl)pyridin-3-yl)-3,4-dihydroisoquinolin-1(2H)-one]	> 1000	11 to 100	–
CC(C)[C@@H]1CN(c2ccc(-c3cc(-c4ccc5c(c4)CCNC5=O)c(N)nc3F)c(F)c2)CCO1 [I-11, (R)-6-(2-amino-6-fluoro-5-(2-fluoro-4-(2-isopropylmorpholino)phenyl)pyridin-3-yl)-3,4-dihydroisoquinolin-1(2H)-one]	> 1000	0.1 to 10	–
CC(C)[C@H]1CN(c2ccc(-c3cc(-c4ccc5c(c4)CCNC5=O)c(N)nc3F)c(F)c2)CCO1 [I-12, (S)-6-(2-amino-6-fluoro-5-(2-fluoro-4-(2-isopropylmorpholino)phenyl)pyridin-3-yl)-3,4-dihydroisoquinolin-1(2H)-one]	> 1000	11 to 100	–
CN1[C@@H]2CC[C@H]1CN(c1ccc(-c3cc(-c4ccc5c(c4)CCNC5=O)c(N)nc3F)cc1)C2 [I-13, 6-(2-amino-6-fluoro-5-(4-((1R,5S)-8-methyl-3,8-diazabicyclo[3.2.1]octan-3-yl)phenyl)pyridin-3-yl)-3,4-dihydroisoquinolin-1(2H)-one]	101 to 1000	0.1 to 10	–
CN1C[C@H]2C[C@@]2(c2ccc(-c3cc(-c4ccc5c(c4)CCNC5=O)c(N)nc3F)cc2)C1 [I-14, 6-(2-amino-6-fluoro-5-(4-((1R,5S)-3-methyl-3-azabicyclo[3.1.0]hexan-1-yl)phenyl)pyridin-3-yl)-3,4-dihydroisoquinolin-1(2H)-one]	> 1000	0.1 to 10	–
CC(C)S(=O)(=O)c1ccc(-c2cc(-c3ccc4c(c3)CCNC4=O)c(N)nc2F)cc1 [I-15, 6-(2-amino-6-fluoro-5-(4-(isopropylsulfonyl)phenyl)pyridin-3-yl)-3,4-dihydroisoquinolin-1(2H)-one]	> 1000	0.1 to 10	–
Nc1nc(F)c(-c2ccc(N3CCNCC3)cc2)cc1-c1ccc2c(c1)CCNC2=O [I-17, 6-(2-amino-6-fluoro-5-(4-(piperazin-1-yl)phenyl)pyridin-3-yl)-3,4-dihydroisoquinolin-1(2H)-one]	> 1000	0.1 to 10	–
CN1C[C@@H]2C[C@H]1CN2c1ccc(-c2cc(-c3ccc4c(c3)CCNC4=O)c(N)nc2F)cc1 [I-18, 6-(2-amino-6-fluoro-5-(4-(5-methyl-2,5-diazabicyclo[2.2.1]heptan-2-yl)phenyl)pyridin-3-yl)-3,4-dihydroisoquinolin-1(2H)-one]	> 1000	0.1 to 10	–
Nc1nc(F)c(-c2ccc(N3CCOCC3)cc2)cc1-c1cc2c(cc1F)C(=O)NCC2 [I-19, 6-(2-amino-6-fluoro-5-(4-morpholinophenyl)pyridin-3-yl)-7-fluoro-3,4-dihydroisoquinolin-1(2H)-one]	> 1000	0.1 to 10	–

SMILES	IC50 (Lck (h)) [nM]	IC50 [1] [nM]	LcK IC50/HPK IC50 selectivity (Lck (h))
Nc1nc(F)c(-c2ccc(N3CCN(CCF)CC3)cc2)cc1-c1ccc2c(c1)CCNC2=O [I-20, 6-(2-amino-6-fluoro-5-(4-(4-(2-fluoroethyl)piperazin-1-yl)phenyl)pyridin-3-yl)-3,4-dihydroisoquinolin-1(2H)-one]	> 1000	0.1 to 10	–
Nc1nc(F)c(-c2ccc(N3CCN(CC(F)F)CC3)cc2)cc1-c1ccc2c(c1)CCNC2=O [I-21, 6-(2-amino-5-(4-(4-(2,2-difluoroethyl)piperazin-1-yl)phenyl)-6-fluoropyridin-3-yl)-3,4-dihydroisoquinolin-1(2H)-one]	> 1000	0.1 to 10	–
Nc1nc(F)c(-c2ccc(N3CCNCC3)c(C(F)(F)F)c2)cc1-c1ccc2c(c1)CCNC2=O [drawing 2685]	–	–	2580
Nc1nc(F)c(-c2ccc3c(c2)OCCCO3)cc1-c1ccc2c(c1)CCNC2=O [drawing 2687]	–	–	1429
Nc1nc(F)c(-c2ccc(N3CCN4CCCC4C3)cc2)cc1-c1ccc2c(c1)CCNC2=O (centres unmarked) [drawing 2689]	–	–	1480
Nc1nc(F)c(-c2ccc(N3CCCN4CCCC4C3)cc2)cc1-c1ccc2c(c1)CCNC2=O (centres unmarked) [drawing 2691]	–	–	1073
Nc1nc(F)c(-c2ccc(C3CCNCC3)cc2)cc1-c1cc2c(cc1F)C(=O)NCC2 [drawing 2693]	–	–	704
Nc1ncc(-c2ccc(C3CCNCC3)cc2)cc1-c1ccc2c(c1)CCNC2=O [reference compound]	–	–	45
Nc1ncc(-c2cnn(C3CCOCC3)c2)cc1-c1ccc2c(c1)CCNC2=O [reference compound]	–	–	0.2
Nc1ncc(-c2ccc(N3CCCC3)cc2)cc1-c1ccc2c(c1)CCNC2=O [reference compound]	–	–	69
Nc1ncc(-c2ccc(N3CCCCC3)cc2)cc1-c1ccc2c(c1)CCNC2=O [reference compound]	–	–	79
Nc1ncc(-c2ccc(N3C[C@H]4COC[C@H]4C3)cc2)cc1-c1ccc2c(c1)CCNC2=O [reference compound]	–	–	51
Nc1ncc(-c2ccc(N3C[C@@H]4CCO[C@@H]4C3)cc2)cc1-c1ccc2c(c1)CCNC2=O [reference compound]	–	–	34
Nc1ncc(-c2ccc(N3CCNCC3)c(C(F)(F)F)c2)cc1-c1ccc2c(c1)CCNC2=O [reference compound]	–	–	145
Nc1ncc(-c2ccc3c(c2)OCCCO3)cc1-c1ccc2c(c1)CCNC2=O [reference compound]	–	–	485
Nc1ncc(-c2ccc(N3CCN4CCCC4C3)cc2)cc1-c1ccc2c(c1)CCNC2=O (centres unmarked) [reference compound]	–	–	20
Nc1ncc(-c2ccc(N3CCCN4CCCC4C3)cc2)cc1-c1ccc2c(c1)CCNC2=O (centres unmarked) [reference compound]	–	–	92
Nc1ncc(-c2ccc(C3CCNCC3)cc2)cc1-c1cc2c(cc1F)C(=O)NCC2 [reference compound]	–	–	27
